# Test results reported in patent US20050032908A1, “Methods for treating metabolic syndrome” (priority 2003, published 2005).
# Read-outs that look alike come from different tables or passages of the source.
# Columns and labels:
# [1] = Pooled analysis of double-blind, placebo-controlled, non-diabetic studies of at least 6 months duration in subjects with metabolic syndrome at baseline; type: in vivo, human; conditions: compared to placebo; change from baseline to latest assessment after month 6 up to month 12
# Excerpt: (§1) The benefits of sibutramine therapy can be extended to subjects with metabolic syndrome. The treatment effect of sibutramine on subjects that had metabolic syndrome at study entry in the STORM trial and by a pooled analysis of double-blind, placebo-controlled, non-diabetic studies of at least 6 months duration were studied. Subjects were identified who had increased abdominal obesity (waist circumference), decreased HDL cholesterol, and elevated triglycerides (TG) at baseline, and who also completed at least 6 months of sibutramine treatment (pooled analysis subjects: 266 sibutramine, 134 placebo; STORM: 80 sibutramine). Since all subjects in the STORM trial received sibutramine for the first 6 months of the study, only subjects subsequently randomized to receive sibutramine for a longer duration were included. The analyses for each variable were based on change from baseline to latest assessment after month 6, up to and including month 12.
# [2] = STORM trial subjects that had metabolic syndrome at study entry; type: in vivo, human; conditions: sibutramine treatment group, 80 subjects; change from baseline to latest assessment after month 6 up to month 12
# Excerpt: as §1
# [3] = cited from earlier work
# [4] = compared to placebo; cited from earlier work
# [5] = subjects who lost and maintained weight, compared to the baseline values of all subjects
structure (smiles),measurement,setting,value
"CC(C)CC(N(C)C)C1(c2ccc(Cl)cc2)CCC1 (centres unmarked) [sibutramine, N,N-dimethyl-1-[1-(4-chlorophenyl)cyclobutyl]-3-methylbutylamine]",HDL,[1],clinically and statistically significant improvements
same,TG,[1],clinically and statistically significant improvements
same,waist circumference,[1],clinically and statistically significant improvements
same,weight loss,[1],clinically and statistically significant improvements
same,HDL,[2],favorable changes
same,TG,[2],favorable changes
same,waist circumference,[2],favorable changes
same,weight loss,[2],favorable changes
same,subjects who maintained ≧10% weight reduction,"[3]; at the end of two years of treatment, placebo 21%",46%
same,subjects who maintained ≧5% weight reduction,"[3]; at the end of two years of treatment, placebo 44%",69%
same,mean fasting insulin levels,[3]; at two years,reduced
same,subjects who completed the trial and maintained at least 80% of their month six weight loss,"[3]; at two years, placebo 16%",43%
same,mean weight loss,"[3]; first six months, subjects achieving ≧5% weight reduction",26 lbs
same,subjects who achieved a ≧5% weight reduction,"[3]; of the 499 subjects who completed the first six months, sibutramine with reduced calorie diet and increased physical activity",94%
same,HDL cholesterol,[3]; [5],clinically and statistically significant improvements
same,triglycerides,[3]; [5],clinically and statistically significant improvements
same,waist circumference,[3]; [5],clinically and statistically significant improvements
same,impaired fasting glucose,[3]; two years,significantly changed
same,HDL cholesterol,[4],significant improvements
same,fasting blood glucose levels,[4],not significantly changed
same,insulin levels,[4],significant improvements
same,triglyceride levels,[4],significant improvements
same,waist circumference (a measure for abdominal obesity),[4],significant improvements
